Results reported in ChEMBL document CHEMBL1759939, “Novel analogues of ketamine and phencyclidine as NMDA receptor antagonists” (Bioorg Med Chem Lett, 2011).
pIC50: −log10 of the molar value.

Experiments:
[1] = target: Glutamate NMDA receptor; GRIN1/GRIN2B (Homo sapiens, UniProt Q05586+Q13224); test: Inhibition of human recombinant NR1/NR2B receptor expressed in U2OS assessed as change in intracellular calcium level by FLIPR assay; type: cell-based; design: concentration or dose not given beside the values
[2] = target: Glutamate NMDA receptor; GRIN1/GRIN2A (Homo sapiens, UniProt Q05586+Q12879); test: Inhibition of human recombinant NR1/NR2A receptor expressed in U2OS assessed as change in intracellular calcium level by FLIPR assay; type: cell-based; design: concentration or dose not given beside the values

SMILES | Activity [1] | pIC50 [1] | Activity [2] | pIC50 [2]
CNC1(c2ccccc2Cl)CCCN(C)C1=O (stereo not given) | 80% | < 3.60 | 80% | < 3.60
NC1(c2ccccc2Cl)CCCNC1=O (stereo not given) | 80% | < 4.30 | 80% | < 4.30
O=C1NCCC1(c1ccccc1)N1CCCCC1 (stereo not given) | 80% | 4.20 | 80% | 4.60
CN1CCC(c2ccccc2)(N2CCCCC2)C1=O (stereo not given) | 80% | 3.60 | 80% | 4.30
FC(F)(F)COc1cccc(C2(N3CCCCC3)CCCCC2)c1 | 94% | 4.50 | 94% | 5.30
CNC1(c2ccccc2Cl)CCCNC1=O (stereo not given) | 80% | < 3.60 | 80% | 4.40
CN1CCCC(c2ccccc2)(N2CCCCC2)C1=O (stereo not given) | 80% | < 3.60 | 80% | 5.50
CCCCOc1cccc(C2(N3CCCCC3)CCCCC2)c1 | 94% | 4.70 | 94% | 5.70
CNC1(c2ccc(OC)cc2Cl)CCCCC1=O (stereo not given) | 80% | 4.70 | 80% | 5.00
c1ccc(C2(N3CCCCC3)CCCCC2)nc1 | 94% | 5.10 | 94% | 5.60
CCCCOc1ccc(C2(N3CCCCC3)CCCCC2)cc1 | 94% | < 4.30 | 94% | < 4.30
COc1ccc(C2(N3CCCCC3)CCCCC2)cc1 | 94% | 4.80 | 94% | 5.40
O=C1NCCCC1(c1ccccc1)N1CCCCC1 (stereo not given) | 80% | 3.80 | 80% | 4.60
CNC1(c2ccccc2Cl)CCCCC1=O (stereo not given) [KETAMINE] | > 100% | 5.30 | > 100% | 5.90
c1ccc(C2(N3CCCCC3)CCCCC2)cc1 [PHENCYCLIDINE] | > 100% | 5.90 | > 100% | 6.40
